According to patent US20140024527A1, “HERBICIDAL PYRAZINONES” (E I DU DE NEMOURS AND COMPANY, priority 2011, published 2014):

Columns and labels:
Assay in all cases: Test B postemergence
Type in all cases: in vivo
Conditions in all cases: scale 0 to 100
corn (Zea mays) = test system: corn (Zea mays)
Text: (§1) Seeds of plant species selected from blackgrass (Alopecurus myosuroides), downy bromegrass (Bromus tectorum), green foxtail (Setaria viridis), Italian ryegrass (Lolium multiflorum), wheat (Triticum aestivum), wild oat (Avena fatua), galium (Galium aparine), bermudagrass (Cynodon dactylon), Surinam grass (Brachiaria decumbens), cocklebur (Xanthium strumarium), corn (Zea mays), large crabgrass (Digitaria sanguinalis), woolly cupgrass (Eriochloa villosa), giant foxtail (Setaria faberii), goosegrass (Eleusine indica), johnsongrass (Sorghum halepense), kochia (Kochia scoparia), lambsquarters (Chenopodium album), morningglory (Ipomoea coccinea), yellow nutsedge (Cyperus esculentus), pigweed (Amaranthus retroflexus), ragweed (Ambrosia elatior), soybean (Glycine max), velvetleaf (Abutilon theophrasti), barley (Hordeum vulgare), canarygrass (Phalaris minor), chickweed (Stellaria media), deadnettle (Lamium amplexicaule) and windgrass (Apera spica-venti) were planted in pots containing Redi-Earth® planting medium (Scotts Company, Marysville, Ohio, USA) comprising spaghnum peat moss, vermiculite, wetting agent and starter nutrients and treated postemergence with test compounds formulated in a non-phytotoxic solvent mixture which included a surfactant. Plants ranged in height from 2 to 18 cm (1- to 4-leaf stage).
(§2) Treated plants and controls were maintained in a greenhouse for 13 to 15 days, after which time all species were compared to controls and visually evaluated. Plant response ratings, summarized in Table B, are based on a scale of 0 to 100 where 0 is no effect and 100 is complete control. A dash (-) response means no test result.

[1] = test system: windgrass (Apera spica-venti)
Text: as §1, §2

[2] = test system: ragweed (Ambrosia elatior)
Text: as §1, §2

[3] = test system: deadnettle (Lamium amplexicaule)
Text: as §1, §2

[4] = test system: johnsongrass (Sorghum halepense)
Text: as §1, §2

[5] = test system: pigweed (Amaranthus retroflexus)
Text: as §1, §2

barley (Hordeum vulgare) = test system: barley (Hordeum vulgare)
Text: as §1, §2

[6] = test system: cocklebur (Xanthium strumarium)
Text: as §1, §2

galium (Galium aparine) = test system: galium (Galium aparine)
Text: as §1, §2

kochia (Kochia scoparia) = test system: kochia (Kochia scoparia)
Text: as §1, §2

[7] = test system: velvetleaf (Abutilon theophrasti)
Text: as §1, §2

[8] = test system: yellow nutsedge (Cyperus esculentus)
Text: as §1, §2

soybean (Glycine max) = test system: soybean (Glycine max)
Text: as §1, §2

[9] = test system: giant foxtail (Setaria faberii)
Text: as §1, §2

[10] = test system: downy bromegrass (Bromus tectorum)
Text: as §1, §2

[11] = test system: Surinam grass (Brachiaria decumbens)
Text: as §1, §2

[12] = test system: chickweed (Stellaria media)
Text: as §1, §2

[13] = test system: bermudagrass (Cynodon dactylon)
Text: as §1, §2

[14] = test system: morningglory (Ipomoea coccinea)
Text: as §1, §2

[15] = test system: green foxtail (Setaria viridis)
Text: as §1, §2

wild oat (Avena fatua) = test system: wild oat (Avena fatua)
Text: as §1, §2

[16] = test system: blackgrass (Alopecurus myosuroides)
Text: as §1, §2

[17] = test system: Italian ryegrass (Lolium multiflorum)
Text: as §1, §2

## COCCn1c(-c2cc(F)cc(F)c2)c(Cl)nc(C(=O)C2=C(O)CCCC2=O)c1=O [Compound 6, 5-chloro-6-(3,5-difluorophenyl)-3-[(2-hydroxy-6-oxo-1-cyclohexen-1-yl)carbonyl]-1-(2-methoxyethyl)-2(1H)-pyrazinone]
Corn (Zea mays); 31 g ai/ha
  Plant response rating, Corn: 45
Corn (Zea mays); 62 g ai/ha
  Plant response rating, Corn: 45
Corn (Zea mays); 125 g ai/ha
  Plant response rating, Corn: 65
Corn (Zea mays); 250 g ai/ha
  Plant response rating, Corn: 80
[1]; 31 g ai/ha
  Plant response rating, Windgrass: 60
[1]; 62 g ai/ha
  Plant response rating, Windgrass: 75
[1]; 125 g ai/ha
  Plant response rating, Windgrass: 80
[1]; 250 g ai/ha
  Plant response rating, Windgrass: 80
[2]; 31 g ai/ha
  Plant response rating, Ragweed: 40
[2]; 62 g ai/ha
  Plant response rating, Ragweed: 60
[2]; 125 g ai/ha
  Plant response rating, Ragweed: 65
[2]; 250 g ai/ha
  Plant response rating, Ragweed: 98
[3]; 31 g ai/ha
  Plant response rating, Deadnettle: 85
[3]; 62 g ai/ha
  Plant response rating, Deadnettle: 85
[3]; 125 g ai/ha
  Plant response rating, Deadnettle: 85
[3]; 250 g ai/ha
  Plant response rating, Deadnettle: 100
[4]; 31 g ai/ha
  Plant response rating, Johnsongrass: 80
[4]; 62 g ai/ha
  Plant response rating, Johnsongrass: 80
[4]; 125 g ai/ha
  Plant response rating, Johnsongrass: 85
[4]; 250 g ai/ha
  Plant response rating, Johnsongrass: 100
[5]; 31 g ai/ha
  Plant response rating, Pigweed: 80
[5]; 62 g ai/ha
  Plant response rating, Pigweed: 95
[5]; 125 g ai/ha
  Plant response rating, Pigweed: 98
[5]; 250 g ai/ha
  Plant response rating, Pigweed: 98
Barley (Hordeum vulgare); 31 g ai/ha
  Plant response rating, Barley: 25
Barley (Hordeum vulgare); 62 g ai/ha
  Plant response rating, Barley: 35
Barley (Hordeum vulgare); 125 g ai/ha
  Plant response rating, Barley: 50
Barley (Hordeum vulgare); 250 g ai/ha
  Plant response rating, Barley: 70
[6]; 31 g ai/ha
  Plant response rating, Cocklebur: 50
[6]; 62 g ai/ha
  Plant response rating, Cocklebur: 75
[6]; 125 g ai/ha
  Plant response rating, Cocklebur: 95
[6]; 250 g ai/ha
  Plant response rating, Cocklebur: 100
Galium (Galium aparine); 31 g ai/ha
  Plant response rating, Galium: 40
Galium (Galium aparine); 62 g ai/ha
  Plant response rating, Galium: 50
Galium (Galium aparine); 125 g ai/ha
  Plant response rating, Galium: 60
Galium (Galium aparine); 250 g ai/ha
  Plant response rating, Galium: 65
Kochia (Kochia scoparia); 31 g ai/ha
  Plant response rating, Kochia: 5
Kochia (Kochia scoparia); 62 g ai/ha
  Plant response rating, Kochia: 40
Kochia (Kochia scoparia); 125 g ai/ha
  Plant response rating, Kochia: 40
Kochia (Kochia scoparia); 250 g ai/ha
  Plant response rating, Kochia: 45
[7]; 31 g ai/ha
  Plant response rating, Velvetleaf: 60
[7]; 62 g ai/ha
  Plant response rating, Velvetleaf: 65
[7]; 125 g ai/ha
  Plant response rating, Velvetleaf: 80
[7]; 250 g ai/ha
  Plant response rating, Velvetleaf: 80
[8]; 31 g ai/ha
  Plant response rating, Nutsedge, Yellow: 40
[8]; 62 g ai/ha
  Plant response rating, Nutsedge, Yellow: 45
[8]; 125 g ai/ha
  Plant response rating, Nutsedge, Yellow: 80
[8]; 250 g ai/ha
  Plant response rating, Nutsedge, Yellow: 80
Soybean (Glycine max); 31 g ai/ha
  Plant response rating, Soybean: 45
Soybean (Glycine max); 62 g ai/ha
  Plant response rating, Soybean: 65
Soybean (Glycine max); 125 g ai/ha
  Plant response rating, Soybean: 70
Soybean (Glycine max); 250 g ai/ha
  Plant response rating, Soybean: 95
[9]; 31 g ai/ha
  Plant response rating, Foxtail, Giant: 65
[9]; 62 g ai/ha
  Plant response rating, Foxtail, Giant: 65
[9]; 125 g ai/ha
  Plant response rating, Foxtail, Giant: 80
[9]; 250 g ai/ha
  Plant response rating, Foxtail, Giant: 95
[10]; 31 g ai/ha
  Plant response rating, Bromegrass, Downy: 15
[10]; 62 g ai/ha
  Plant response rating, Bromegrass, Downy: 35
[10]; 125 g ai/ha
  Plant response rating, Bromegrass, Downy: 50
[10]; 250 g ai/ha
  Plant response rating, Bromegrass, Downy: 60
[11]; 31 g ai/ha
  Plant response rating, Surinam Grass: 75
[11]; 62 g ai/ha
  Plant response rating, Surinam Grass: 75
[11]; 125 g ai/ha
  Plant response rating, Surinam Grass: 85
[11]; 250 g ai/ha
  Plant response rating, Surinam Grass: 98
[12]; 31 g ai/ha
  Plant response rating, Chickweed: 10
[12]; 62 g ai/ha
  Plant response rating, Chickweed: 25
[12]; 125 g ai/ha
  Plant response rating, Chickweed: 55
[12]; 250 g ai/ha
  Plant response rating, Chickweed: 75
[13]; 31 g ai/ha
  Plant response rating, Bermudagrass: 5
[13]; 62 g ai/ha
  Plant response rating, Bermudagrass: 45
[13]; 125 g ai/ha
  Plant response rating, Bermudagrass: 75
[13]; 250 g ai/ha
  Plant response rating, Bermudagrass: 95
[14]; 31 g ai/ha
  Plant response rating, Morningglory: 95
[14]; 62 g ai/ha
  Plant response rating, Morningglory: 100
[14]; 125 g ai/ha
  Plant response rating, Morningglory: 100
[14]; 250 g ai/ha
  Plant response rating, Morningglory: 100
[15]; 31 g ai/ha
  Plant response rating, Foxtail, Green: 50
[15]; 62 g ai/ha
  Plant response rating, Foxtail, Green: 70
[15]; 125 g ai/ha
  Plant response rating, Foxtail, Green: 85
[15]; 250 g ai/ha
  Plant response rating, Foxtail, Green: 98
Wild oat (Avena fatua); 31 g ai/ha
  Plant response rating, Oat, Wild: 10
Wild oat (Avena fatua); 62 g ai/ha
  Plant response rating, Oat, Wild: 40
Wild oat (Avena fatua); 125 g ai/ha
  Plant response rating, Oat, Wild: 40
Wild oat (Avena fatua); 250 g ai/ha
  Plant response rating, Oat, Wild: 90
[16]; 31 g ai/ha
  Plant response rating, Blackgrass: 50
[16]; 62 g ai/ha
  Plant response rating, Blackgrass: 55
[16]; 125 g ai/ha
  Plant response rating, Blackgrass: 60
[16]; 250 g ai/ha
  Plant response rating, Blackgrass: 60
[17]; 31 g ai/ha
  Plant response rating, Ryegrass, Italian: 0
[17]; 62 g ai/ha
  Plant response rating, Ryegrass, Italian: 5
[17]; 125 g ai/ha
  Plant response rating, Ryegrass, Italian: 15
[17]; 250 g ai/ha
  Plant response rating, Ryegrass, Italian: 45
